These results are taken from ChEMBL document CHEMBL6078719, “Discovery of acetohydroxyacid synthase inhibitors as anti-tuberculosis lead compounds from natural products” (Bioorg Med Chem, 2025).

SMILES strings stand for the structures. ≈ marks a conversion by molar mass, not a printed value. Calls of active or inactive are those of the source. No cut-off for these calls is given here. A value given as a limit tells only on which side of the number the result lay.

Series [1] in a line: Inhibition of Mycobacterium tuberculosis Acetohydroxy acid synthase using pyruvate as substrate incubated for 10 mins followed by substrate addition by colorimetric assay.
In series [2] the test system is Mycolicibacterium smegmatis. Description: Antibacterial activity against Mycobacterium smegmatis assessed as inhibition of bacterial growth incubated for 3 days by alamar blue staining based assay. It is filed as functional. The conditions noted are these: 72 h, time 3 day. For orientation: The colour change of resazurin is a common sign of viable cells or microbes.

The nature of series [3]: Inhibition of Mycobacterium tuberculosis Acetohydroxy acid synthase using pyruvate as substrate at 40 uM incubated for 10 mins followed by substrate addition by colorimetric assay relative to control.
Series [4] concerns Mycobacterium tuberculosis. The series can be described thus: Synergistic antibacterial activity against Mycobacterium tuberculosis assessed as inhibition of bacterial growth incubated for 3 days in presence of rifampicin by alamar blue staining based assay. Particulars: time 3.0 day. It counts as functional, organism-based.
The nature of series [5]: Binding affinity to Mycobacterium tuberculosis Acetohydroxy acid synthase assessed as binding constant by isothermal titration calorimetry. For orientation: Isothermal titration calorimetry measures the heat released or taken up as one component is titrated into another.
Series [6] has as its system Mycobacterium tuberculosis. Description: Antibacterial activity against Mycobacterium tuberculosis assessed as inhibition of bacterial growth incubated for 3 days by alamar blue staining based assay. It is filed as functional. The conditions noted are these: 72 h, time 3 day.
Series [7] can be described thus: Selectivity index, ratio of IC50 for cytotoxicity against human THP-1 cells to MIC90 for antimycobacterial activity against Mycobacterium tuberculosis. Particulars: read-out: Selectivity Index. It is filed as toxicity, cell-based.
In series [8] the test system is Mycobacterium tuberculosis. Description: Binding affinity to Mycobacterium tuberculosis Acetohydroxy acid synthase assessed as gibbs free energy change by isothermal titration calorimetry.
Series [9] concerns Mycobacterium tuberculosis. The series can be described thus: Binding affinity to Mycobacterium tuberculosis Acetohydroxy acid synthase assessed as change in enthalpy by isothermal titration calorimetry.
A short description of series [10]: Cytotoxicity against human THP-1 cells incubated for 48 hrs by CCK8 assay. It counts as toxicity, cell-based. A general note: Formazan colour is commonly taken as a measure of viable cells.
The test system of series [11] is Mycolicibacterium smegmatis. Description: Synergistic antibacterial activity against Mycobacterium smegmatis assessed as inhibition of bacterial growth incubated for 3 days in presence of rifampicin by alamar blue staining based assay. It counts as functional, organism-based. The conditions noted are these: time 3.0 day.
The test system of series [12] is Mycobacterium tuberculosis. The series can be described thus: Antimycobacterial activity against Mycobacterium tuberculosis assessed as inhibition of bacterial growth. It counts as functional.

In the case of `COc1ccc(-c2oc3c(CCC(C)(C)O)c(O)cc(O)c3c(=O)c2O)cc1`, the half-inhibitory concentration (IC50) – broadly, the concentration at which inhibition is half-maximal – in [1] came to 32.4 µM. Besides, the MIC (as a rule, the lowest concentration found to suppress growth) in [2] is greater than 5000 µM. The inhibition (in general, the relative decrease from the control value, in per cent) in series [3] is greater than 90%.
Regarding `CC1=C(O)C(=O)C=C2C1=CC=C1[C@@]2(C)CC[C@@]2(C)[C@@H]3C[C@](C)(C(=O)O)CC[C@]3(C)CC[C@]12C` [CELASTROL], the result in series [4] and in series [11] was inactive. Further, the Kd (in general, the constant that tells how readily two partners part at equilibrium) in series [5] was 1.9 µM. Further, the figures for the MIC in series [6] and in series [2] were 80 µM (≈ 36 µg/mL) and 62.5 µM (≈ 28.2 µg/mL), respectively. Also, the selectivity ratio in series [7] was less than 1. Besides, in series [8], the deltaG is -7.81 kcal/mol. In addition, the deltaH in [9] was -9.87 kcal/mol. This compound showed an IC50 at 48 h in series [10] of 12.5 µM. Further, half-maximal inhibition in series [1] (IC50) was put at 0.81 µM. The inhibition in series [3] was greater than 90%. For the same compound, the MIC90 (as a rule, an inhibitory concentration at the 90% level, which refers to growth in some studies and to a panel of isolates in others) in series [12] stood at 80 µM (≈ 36 µg/mL).
`CCCCCCCCCCCC1=C(O)C(=O)C=C(O)C1=O` [EMBELIN] showed an IC50 in series [1] of 9.46 µM. In addition, the MIC in series [2] is greater than 5000 µM. Also, in series [3], the inhibition is greater than 90%.
In the case of `O=C(/C=C/c1ccc(O)c(O)c1/C=C/c1ccc(O)c(O)c1)O[C@H](Cc1ccc(O)c(O)c1)C(=O)O` [SALVIANOLIC ACID A], the outcome in series [4] and in series [11] was inactive. Moreover, the figures for the MIC in [6] and in [2] were 312 µM (≈ 155 µg/mL) and 125 µM (≈ 61.8 µg/mL), respectively. In addition, in series [1], it took 0.84 µM to reach half-maximal inhibition (IC50). Moreover, the inhibition in series [3] was greater than 90%.
Consider `COC(=O)c1ccccc1S(=O)(=O)NC(=O)Nc1nc(C)cc(C)n1` [SULFOMETURON METHYL], for which the IC50 in [1] stood at 3.68 µM. Besides, the MIC in [2] was 7.8 µM (≈ 2.84 µg/mL). Further, the inhibition in series [3] was greater than 90%.
